According to ChEMBL document CHEMBL1134698 (Bioorg Med Chem Lett, 2001):

Tests used:
[1] = target: Monoamine transporters; serotonin & dopamine (Homo sapiens) (UniProt P31645+Q01959); assay: Selectivity was measured as SERT/DAT; format: protein assay
[2] = target: Sodium-dependent serotonin transporter (Rattus norvegicus, UniProt P31652); assay: Binding affinity was evaluated by measuring inhibiting the binding of [3H]citalopram to Serotonin transporter in rat brain tissue; format: tissue-based
Chain of Sodium-dependent serotonin transporter (P31652 whole entry): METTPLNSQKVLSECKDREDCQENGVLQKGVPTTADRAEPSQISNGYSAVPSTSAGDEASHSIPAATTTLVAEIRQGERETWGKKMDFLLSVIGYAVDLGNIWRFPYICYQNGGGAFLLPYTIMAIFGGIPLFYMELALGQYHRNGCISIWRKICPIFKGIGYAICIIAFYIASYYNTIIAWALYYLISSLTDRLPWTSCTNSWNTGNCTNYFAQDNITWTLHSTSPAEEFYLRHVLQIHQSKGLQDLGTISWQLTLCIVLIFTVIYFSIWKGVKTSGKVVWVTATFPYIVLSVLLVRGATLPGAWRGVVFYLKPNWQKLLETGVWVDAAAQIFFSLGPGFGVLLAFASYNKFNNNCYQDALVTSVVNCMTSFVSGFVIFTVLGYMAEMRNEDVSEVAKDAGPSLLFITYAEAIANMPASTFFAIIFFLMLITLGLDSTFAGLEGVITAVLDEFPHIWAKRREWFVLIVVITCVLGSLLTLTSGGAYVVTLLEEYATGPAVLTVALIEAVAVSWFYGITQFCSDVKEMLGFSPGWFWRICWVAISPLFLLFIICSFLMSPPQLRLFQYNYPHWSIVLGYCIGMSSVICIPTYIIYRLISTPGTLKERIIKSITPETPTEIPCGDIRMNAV

Rattus norvegicus = organism: Rattus norvegicus; assay: Inhibition of [3H]dopamine reuptake in rat […]; format: functional
[3] = target: Norepinephrine transporter (Rattus norvegicus, UniProt Q9WTR4); assay: Binding affinity was evaluated by measuring inhibiting the binding of [3H]nisoxetine to Norepinephrine transporter in rat brain tissue; format: tissue-based
Chain of Norepinephrine transporter (Q9WTR4 whole entry): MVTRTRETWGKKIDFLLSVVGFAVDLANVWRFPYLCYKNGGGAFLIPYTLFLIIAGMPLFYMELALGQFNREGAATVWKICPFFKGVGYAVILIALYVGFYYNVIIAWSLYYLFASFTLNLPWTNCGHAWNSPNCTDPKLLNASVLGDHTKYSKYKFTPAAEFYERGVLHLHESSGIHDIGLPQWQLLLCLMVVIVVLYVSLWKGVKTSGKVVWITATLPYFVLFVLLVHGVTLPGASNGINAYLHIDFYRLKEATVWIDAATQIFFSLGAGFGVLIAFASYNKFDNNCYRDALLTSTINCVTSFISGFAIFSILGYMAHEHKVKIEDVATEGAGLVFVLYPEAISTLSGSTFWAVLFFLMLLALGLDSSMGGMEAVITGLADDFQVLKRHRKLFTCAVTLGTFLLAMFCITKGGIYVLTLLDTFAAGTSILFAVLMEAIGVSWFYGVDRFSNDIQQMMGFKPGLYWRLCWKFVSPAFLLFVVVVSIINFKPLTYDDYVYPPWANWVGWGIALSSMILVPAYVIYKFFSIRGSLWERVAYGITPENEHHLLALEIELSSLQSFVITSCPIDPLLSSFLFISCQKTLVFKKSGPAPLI

[4] = target: Sodium-dependent dopamine transporter (Rattus norvegicus, UniProt P23977); assay: Binding affinity was evaluated by measuring the inhibition of [3H]WIN-35428 binding to Dopamine transporter in rat brain tissue; format: tissue-based
Chain of Sodium-dependent dopamine transporter (P23977 whole entry): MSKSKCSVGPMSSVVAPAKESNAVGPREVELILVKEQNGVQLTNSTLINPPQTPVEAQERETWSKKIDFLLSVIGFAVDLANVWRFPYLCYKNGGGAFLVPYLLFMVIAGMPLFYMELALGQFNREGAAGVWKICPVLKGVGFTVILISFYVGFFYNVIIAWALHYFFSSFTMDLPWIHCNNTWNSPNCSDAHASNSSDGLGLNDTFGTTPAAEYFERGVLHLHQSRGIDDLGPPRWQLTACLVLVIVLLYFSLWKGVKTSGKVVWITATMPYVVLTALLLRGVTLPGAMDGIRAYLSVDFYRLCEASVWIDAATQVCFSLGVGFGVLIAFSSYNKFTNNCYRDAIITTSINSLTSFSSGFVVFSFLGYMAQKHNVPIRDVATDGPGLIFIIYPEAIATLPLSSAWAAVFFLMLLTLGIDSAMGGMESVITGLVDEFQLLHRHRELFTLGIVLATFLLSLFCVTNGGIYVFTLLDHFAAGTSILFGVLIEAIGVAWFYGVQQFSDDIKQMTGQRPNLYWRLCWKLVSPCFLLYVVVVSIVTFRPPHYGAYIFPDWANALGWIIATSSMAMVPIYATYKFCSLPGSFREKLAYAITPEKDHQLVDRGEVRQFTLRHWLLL

Chain of Monoamine transporters; serotonin & dopamine (Homo sapiens) (P31645 whole entry, looked up): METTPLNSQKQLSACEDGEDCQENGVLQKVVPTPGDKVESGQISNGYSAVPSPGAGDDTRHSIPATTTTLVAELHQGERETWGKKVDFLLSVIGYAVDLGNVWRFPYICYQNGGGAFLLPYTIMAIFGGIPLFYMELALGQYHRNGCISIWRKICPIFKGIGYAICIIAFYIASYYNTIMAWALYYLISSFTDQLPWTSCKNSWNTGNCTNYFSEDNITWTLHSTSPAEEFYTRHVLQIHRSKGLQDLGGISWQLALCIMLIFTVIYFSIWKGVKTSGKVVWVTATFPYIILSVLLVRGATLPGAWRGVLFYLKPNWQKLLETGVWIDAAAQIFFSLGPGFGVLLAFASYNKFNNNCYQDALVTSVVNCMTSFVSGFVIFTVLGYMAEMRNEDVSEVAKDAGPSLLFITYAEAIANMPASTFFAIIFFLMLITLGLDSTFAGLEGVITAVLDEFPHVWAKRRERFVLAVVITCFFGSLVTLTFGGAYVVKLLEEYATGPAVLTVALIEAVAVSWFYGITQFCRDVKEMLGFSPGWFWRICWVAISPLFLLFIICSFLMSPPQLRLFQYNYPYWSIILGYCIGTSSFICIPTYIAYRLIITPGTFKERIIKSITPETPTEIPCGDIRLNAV
Chain of Monoamine transporters; serotonin & dopamine (Homo sapiens) (Q01959 whole entry, looked up): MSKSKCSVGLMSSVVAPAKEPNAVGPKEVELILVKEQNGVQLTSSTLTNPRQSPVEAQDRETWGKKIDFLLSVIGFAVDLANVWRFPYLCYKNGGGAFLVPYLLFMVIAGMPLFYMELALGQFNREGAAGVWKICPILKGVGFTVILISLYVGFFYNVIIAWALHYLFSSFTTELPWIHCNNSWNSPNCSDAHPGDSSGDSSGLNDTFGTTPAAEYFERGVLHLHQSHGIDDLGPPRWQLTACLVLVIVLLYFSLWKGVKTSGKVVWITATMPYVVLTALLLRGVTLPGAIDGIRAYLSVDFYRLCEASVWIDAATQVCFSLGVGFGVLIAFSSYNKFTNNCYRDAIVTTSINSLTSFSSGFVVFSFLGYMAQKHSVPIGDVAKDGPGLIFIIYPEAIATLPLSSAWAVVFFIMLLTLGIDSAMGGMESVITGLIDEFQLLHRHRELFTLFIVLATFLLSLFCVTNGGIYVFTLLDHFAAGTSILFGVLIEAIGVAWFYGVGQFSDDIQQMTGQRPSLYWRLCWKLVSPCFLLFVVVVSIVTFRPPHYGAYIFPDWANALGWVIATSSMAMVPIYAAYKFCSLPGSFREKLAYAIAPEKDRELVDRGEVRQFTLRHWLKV

SMILES	Selectivity [1]	IC50 [2]	IC50 (Rattus norvegicus)	IC50 [3]	IC50 [4]	IC50 (Rattus norvegicus; Rattus norvegicus)
Fc1ccc(CN2CCC(CNCC(c3ccccc3)c3ccccc3)CC2)cc1	6.9					
Fc1ccc(CNC2CCC(C(c3ccccc3)c3ccccc3)NC2)cc1 (cis isomer) [listing 1 of 2 here]		2810 nM	28.9 nM	1.35 µM		
Fc1ccc(CNC2CCC(C(c3ccccc3)c3ccccc3)NC2)cc1 (cis isomer) [listing 2 of 2 here]	93.7					
O=C(NC1CCC(C(c2ccccc2)c2ccccc2)NC1)c1ccc(F)cc1 (racemic)	71.4	6210 nM		5.61 µM	87 nM	
COC(=O)[C@@H]1C2CC[C@@H](C[C@@H]1OC(=O)c1ccccc1)N2C (single isomer, unassigned) [COCAINE]						191 nM
Fc1ccc(CNC2CCC(C(c3ccccc3)c3ccccc3)NC2)cc1 (stereo in doubt) [listing 1 of 2 here]		1330 nM	106 nM	4.47 µM	21.2 nM	
Fc1ccc(CNC2CCC(C(c3ccccc3)c3ccccc3)NC2)cc1 (stereo in doubt) [listing 2 of 2 here]	6.28					
